# Experimental data taken from article PMC11995216, “End-to-End Backbone Cyclization Enhances Passive Permeability of bRo5 Oligomeric Depsipeptides with Nonlinear Size Dependence” (ACS Medicinal Chemistry Letters, 2025).
# Where two headings read alike, the source gives them in different places.
# Key:
# PAMPA [1] = system: PAMPA
# PAMPA [2] = system: PAMPA; remark: listed apart in the source
# [3] = PAMPA, permeability assay across an artificial membrane; conditions: for Acceptor Concentration, Ave: after incubation
# [4] = PAMPA, ratio-based method, mean ± SD, C0 500 uM, UV detection
compound,measurement,setting,value
"CCCCC[C@@H]1OC(=O)[C@@H](C)N(C)C(=O)[C@H](CCCCC)OC(=O)[C@@H](C)N(C)C(=O)[C@H](CCCCC)OC(=O)[C@@H](C)N(C)C(=O)[C@H](CCCCC)OC(=O)[C@@H](C)N(C)C1=O [Compound C1.4, ent-verticilide]",Papp,"PAMPA [1]; Papp (x 10^-6 cm/s) – ELSD Detection / [row 1], ELSD Detection",7.05 ×10⁻⁶ cm/s
same,Papp,"PAMPA [1]; Papp (x 10^-6 cm/s) – ELSD Detection / [row 2], ELSD Detection",7.2 ×10⁻⁶ cm/s
same,Papp,"PAMPA [1]; Papp (x 10^-6 cm/s) – ELSD Detection / [row 3], ELSD Detection",4.28 ×10⁻⁶ cm/s
same,Papp,"PAMPA [1]; Papp (x 10^-6 cm/s) – ELSD Detection / [row 4], ELSD Detection",7.39 ×10⁻⁶ cm/s
same,Papp,"PAMPA [1]; Papp (x 10^-6 cm/s) – ELSD Detection / [row 5], ELSD Detection",4.99 ×10⁻⁶ cm/s
same,Papp,"PAMPA [1]; Papp (x 10^-6 cm/s) – ELSD Detection / [row 6], ELSD Detection",6.24 ×10⁻⁶ cm/s
same,Papp,"PAMPA [1]; Papp (x 10^-6 cm/s) – ELSD Detection / [row 7], ELSD Detection",5.58 ×10⁻⁶ cm/s
same,Papp,"PAMPA [1]; Papp (x 10^-6 cm/s) – ELSD Detection / [row 8], ELSD Detection",7.27 ×10⁻⁶ cm/s
same,Papp,"PAMPA [1]; Papp (x 10^-6 cm/s) – ELSD Detection / [row 9], ELSD Detection",4.68 ×10⁻⁶ cm/s
same,Papp,"PAMPA [1]; Papp (x 10^-6 cm/s) – ELSD Detection / [row 10], ELSD Detection",4.63 ×10⁻⁶ cm/s
same,Papp,"PAMPA [1]; Papp (x 10^-6 cm/s) – ELSD Detection / [row 11], ELSD Detection",4.05 ×10⁻⁶ cm/s
same,Papp,"PAMPA [1]; Papp (x 10^-6 cm/s) – ELSD Detection / [row 12], ELSD Detection",6.98 ×10⁻⁶ cm/s
same,Papp,"PAMPA [1]; Papp (x 10^-6 cm/s) – ELSD Detection / [row 13], ELSD Detection",4.62 ×10⁻⁶ cm/s
same,Papp,"PAMPA [1]; Papp (x 10^-6 cm/s) – ELSD Detection / [row 14], ELSD Detection",3.79 ×10⁻⁶ cm/s
same,Papp,"PAMPA [1]; Papp (x 10^-6 cm/s) – ELSD Detection / [row 15], ELSD Detection",4.66 ×10⁻⁶ cm/s
same,Papp,"PAMPA [1]; Papp (x 10^-6 cm/s) – ELSD Detection / [row 16], ELSD Detection",5.98 ×10⁻⁶ cm/s
same,Papp,"PAMPA [1]; Papp (x 10^-6 cm/s) – ELSD Detection / [row 17], ELSD Detection",5.46 ×10⁻⁶ cm/s
same,Papp,"PAMPA [1]; Papp (x 10^-6 cm/s) – ELSD Detection / [row 18], ELSD Detection",6.2 ×10⁻⁶ cm/s
same,Papp,"PAMPA [1]; Papp (x 10^-6 cm/s) – ELSD Detection / [row 19], ELSD Detection",5.51 ×10⁻⁶ cm/s
same,Papp,"PAMPA [1]; Papp (x 10^-6 cm/s) – ELSD Detection / [row 20], ELSD Detection",5.72 ×10⁻⁶ cm/s
same,Papp,"PAMPA [1]; Papp (x 10^-6 cm/s) – ELSD Detection / [row 21], ELSD Detection",4.75 ×10⁻⁶ cm/s
same,Papp,"PAMPA [1]; Papp (x 10^-6 cm/s) – ELSD Detection / [row 22], ELSD Detection",7.56 ×10⁻⁶ cm/s
same,Papp,"PAMPA [1]; Papp (x 10^-6 cm/s) – ELSD Detection / [row 23], ELSD Detection",7.22 ×10⁻⁶ cm/s
same,Papp,"PAMPA [1]; Papp (x 10^-6 cm/s) – ELSD Detection / [row 24], ELSD Detection",4.78 ×10⁻⁶ cm/s
same,Papp,"PAMPA [1]; Papp (x 10^-6 cm/s) – UV Detection / [row 1], UV Detection",6.39 ×10⁻⁶ cm/s
same,Papp,"PAMPA [1]; Papp (x 10^-6 cm/s) – UV Detection / [row 2], UV Detection",7.95 ×10⁻⁶ cm/s
same,Papp,"PAMPA [1]; Papp (x 10^-6 cm/s) – UV Detection / [row 3], UV Detection",6.48 ×10⁻⁶ cm/s
same,Papp,"PAMPA [1]; Papp (x 10^-6 cm/s) – UV Detection / [row 4], UV Detection",7.85 ×10⁻⁶ cm/s
same,Papp,"PAMPA [1]; Papp (x 10^-6 cm/s) – UV Detection / [row 5], UV Detection",6.83 ×10⁻⁶ cm/s
same,Papp,"PAMPA [1]; Papp (x 10^-6 cm/s) – UV Detection / [row 6], UV Detection",7.11 ×10⁻⁶ cm/s
same,Papp,"PAMPA [1]; Papp (x 10^-6 cm/s) – UV Detection / [row 7], UV Detection",6.85 ×10⁻⁶ cm/s
same,Papp,"PAMPA [1]; Papp (x 10^-6 cm/s) – UV Detection / [row 8], UV Detection",7.63 ×10⁻⁶ cm/s
same,Papp,"PAMPA [1]; Papp (x 10^-6 cm/s) – UV Detection / [row 9], UV Detection",4.68 ×10⁻⁶ cm/s
same,Papp,"PAMPA [1]; Papp (x 10^-6 cm/s) – UV Detection / [row 10], UV Detection",4.63 ×10⁻⁶ cm/s
same,Papp,"PAMPA [1]; Papp (x 10^-6 cm/s) – UV Detection / [row 11], UV Detection",4.05 ×10⁻⁶ cm/s
same,Papp,"PAMPA [1]; Papp (x 10^-6 cm/s) – UV Detection / [row 12], UV Detection",6.98 ×10⁻⁶ cm/s
same,Papp,"PAMPA [1]; Papp (x 10^-6 cm/s) – UV Detection / [row 13], UV Detection",4.62 ×10⁻⁶ cm/s
same,Papp,"PAMPA [1]; Papp (x 10^-6 cm/s) – UV Detection / [row 14], UV Detection",3.79 ×10⁻⁶ cm/s
same,Papp,"PAMPA [1]; Papp (x 10^-6 cm/s) – UV Detection / [row 15], UV Detection",4.66 ×10⁻⁶ cm/s
same,Papp,"PAMPA [1]; Papp (x 10^-6 cm/s) – UV Detection / [row 16], UV Detection",5.98 ×10⁻⁶ cm/s
same,Papp,"PAMPA [1]; Papp (x 10^-6 cm/s) – UV Detection / [row 17], UV Detection",6.44 ×10⁻⁶ cm/s
same,Papp,"PAMPA [1]; Papp (x 10^-6 cm/s) – UV Detection / [row 18], UV Detection",7.86 ×10⁻⁶ cm/s
same,Papp,"PAMPA [1]; Papp (x 10^-6 cm/s) – UV Detection / [row 19], UV Detection",4.86 ×10⁻⁶ cm/s
same,Papp,"PAMPA [1]; Papp (x 10^-6 cm/s) – UV Detection / [row 20], UV Detection",6.27 ×10⁻⁶ cm/s
same,Papp,"PAMPA [1]; Papp (x 10^-6 cm/s) – UV Detection / [row 21], UV Detection",6.77 ×10⁻⁶ cm/s
same,Papp,"PAMPA [1]; Papp (x 10^-6 cm/s) – UV Detection / [row 22], UV Detection",5.18 ×10⁻⁶ cm/s
same,Papp,"PAMPA [1]; Papp (x 10^-6 cm/s) – UV Detection / [row 23], UV Detection",5.55 ×10⁻⁶ cm/s
same,Papp,"PAMPA [1]; Papp (x 10^-6 cm/s) – UV Detection / [row 24], UV Detection",6.05 ×10⁻⁶ cm/s
same,Acceptor Concentration,PAMPA [2]; Acceptor Concentration (uM) – ELSD Detection / [row 1],122 µM
same,Acceptor Concentration,PAMPA [2]; Acceptor Concentration (uM) – ELSD Detection / [row 2],148 µM
same,Acceptor Concentration,PAMPA [2]; Acceptor Concentration (uM) – ELSD Detection / [row 3],157 µM
same,Acceptor Concentration,PAMPA [2]; Acceptor Concentration (uM) – ELSD Detection / [row 4],122 µM
same,Acceptor Concentration,PAMPA [2]; Acceptor Concentration (uM) – ELSD Detection / [row 5],137 µM
same,Acceptor Concentration,PAMPA [2]; Acceptor Concentration (uM) – ELSD Detection / [row 6],76.5 µM
same,Acceptor Concentration,PAMPA [2]; Acceptor Concentration (uM) – ELSD Detection / [row 7],98.2 µM
same,Acceptor Concentration,PAMPA [2]; Acceptor Concentration (uM) – ELSD Detection / [row 8],94.4 µM
same,Acceptor Concentration,PAMPA [2]; Acceptor Concentration (uM) – ELSD Detection / [row 9],105 µM
same,Acceptor Concentration,PAMPA [2]; Acceptor Concentration (uM) – ELSD Detection / [row 10],92.1 µM
same,Acceptor Concentration,PAMPA [2]; Acceptor Concentration (uM) – ELSD Detection / [row 11],114 µM
same,Acceptor Concentration,PAMPA [2]; Acceptor Concentration (uM) – ELSD Detection / [row 12],159 µM
same,Acceptor Concentration,PAMPA [2]; Acceptor Concentration (uM) – ELSD Detection / [row 13],121 µM
same,Acceptor Concentration,PAMPA [2]; Acceptor Concentration (uM) – ELSD Detection / [row 14],125 µM
same,Acceptor Concentration,PAMPA [2]; Acceptor Concentration (uM) – ELSD Detection / [row 15],150 µM
same,Acceptor Concentration,PAMPA [2]; Acceptor Concentration (uM) – ELSD Detection / [row 16],136 µM
same,Acceptor Concentration,PAMPA [2]; Acceptor Concentration (uM) – ELSD Detection / [row 17],142 µM
same,Acceptor Concentration,PAMPA [2]; Acceptor Concentration (uM) – ELSD Detection / [row 18],129 µM
same,Acceptor Concentration,PAMPA [2]; Acceptor Concentration (uM) – ELSD Detection / [row 19],90.2 µM
same,Acceptor Concentration,PAMPA [2]; Acceptor Concentration (uM) – ELSD Detection / [row 20],59.8 µM
same,Acceptor Concentration,PAMPA [2]; Acceptor Concentration (uM) – ELSD Detection / [row 21],91.7 µM
same,Acceptor Concentration,PAMPA [2]; Acceptor Concentration (uM) – ELSD Detection / [row 22],130 µM
same,Acceptor Concentration,PAMPA [2]; Acceptor Concentration (uM) – ELSD Detection / [row 23],115 µM
same,Acceptor Concentration,PAMPA [2]; Acceptor Concentration (uM) – ELSD Detection / [row 24],125 µM
same,Diffusion (%),"[3]; PAMPA percent diffusion, C0 500 uM",25.5 ± 3.4%
same,Papp at 500 uM,"[3]; PAMPA, Ave, ELSD detection, C0 500 uM",5.69 ×10⁻⁶ cm/s
same,Papp at 500 uM,[3]; [4],7.14 ± 0.65 ×10⁻⁶ cm/s
same,"Acceptor Concentration, Ave","[3]; PAMPA, ELSD detection, C0 500 uM",118.4 µM
same,"Acceptor Concentration, Ave","[3]; PAMPA, UV detection, C0 500 uM",127.6 µM
same,"Acceptor Concentration, Ave","[3]; PAMPA, UV detection, C0 500 uM, listed as ent‐Verticilide",127.56 µM
same,LogPapp,[3]; [4],-5.21 ± 0.09
same,Δ % diffusion,[3]; increase: difference between percent diffusion of macrocycle vs linear counterpart,↑14%
